Test results: patent US9469650B2, “Melampomagnolide B derivatives” (BOARD OF TRUSTEES OF THE UNIVERSITY OF ARKANSAS, priority 2013, dated 2016)

What was measured:
CCRF-CEM = assay: panel of 60 human tumor cell lines, growth inhibition (Leukemia); conditions: Homo sapiens
NCI/ADR-RES = assay: panel of 60 human tumor cell lines, growth inhibition (Ovarian Cancer); conditions: Homo sapiens
RXF 393 = assay: panel of 60 human tumor cell lines, growth inhibition (Renal Cancer); conditions: Homo sapiens
UACC-62 = assay: panel of 60 human tumor cell lines, growth inhibition (Melanoma); conditions: Homo sapiens
HCT-116 = assay: panel of 60 human tumor cell lines, growth inhibition (Colon Cancer); conditions: Homo sapiens
UO-31 = assay: panel of 60 human tumor cell lines, growth inhibition (Renal Cancer); conditions: Homo sapiens
DU-145 = assay: panel of 60 human tumor cell lines, growth inhibition (Prostate Cancer); conditions: Homo sapiens
SK-MEL-28 = assay: panel of 60 human tumor cell lines, growth inhibition (Melanoma); conditions: Homo sapiens
SK-OV-3 = assay: panel of 60 human tumor cell lines, growth inhibition (Ovarian Cancer); conditions: Homo sapiens
NCI-H23 = assay: panel of 60 human tumor cell lines, growth inhibition (Non-Small Cell Lung Cancer); conditions: Homo sapiens
T-47D = assay: panel of 60 human tumor cell lines, growth inhibition (Breast Cancer); conditions: Homo sapiens, T47D
A498 = assay: panel of 60 human tumor cell lines, growth inhibition (Renal Cancer); conditions: Homo sapiens
KM12 = assay: panel of 60 human tumor cell lines, growth inhibition (Colon Cancer)
HCC-2998 = assay: as above; conditions: Homo sapiens
OVCAR-5 = assay: panel of 60 human tumor cell lines, growth inhibition (Ovarian Cancer); conditions: Homo sapiens
NCI-H522 = assay: panel of 60 human tumor cell lines, growth inhibition (Non-Small Cell Lung Cancer); conditions: Homo sapiens
SNB-75 = assay: panel of 60 human tumor cell lines, growth inhibition (CNS Cancer); conditions: Homo sapiens
786-0 = assay: panel of 60 human tumor cell lines, growth inhibition (Renal Cancer); conditions: Homo sapiens
SNB-19 = assay: panel of 60 human tumor cell lines, growth inhibition (CNS Cancer); conditions: Homo sapiens

Structure (SMILES): C=C1C(=O)O[C@H]2[C@H]1CC/C(COC(=O)OCCCN1CCCCC1)=C\CC[C@@]1(C)O[C@@H]21 [JVM 2-26]
- GI50 (CCRF-CEM): 1780 nM
- CC50 (CCRF-CEM; read-out: LC50): 63.5 µM
- IC (TGI) (CCRF-CEM; read-out: TGI): 5.72 µM
- GI50 (NCI/ADR-RES): 17.2 µM
- CC50 (NCI/ADR-RES; read-out: LC50): > 100 µM
- IC (TGI) (NCI/ADR-RES; read-out: TGI): 45.8 µM
- GI50 (RXF 393; RXF 393, RXF 393): 2350 nM
- CC50 (RXF 393; RXF 393, read-out: LC50): 34 µM
- IC (TGI) (RXF 393; RXF 393, read-out: TGI): 8.65 µM
- GI50 (UACC-62; UACC-62): 8.05 µM
- CC50 (UACC-62; UACC-62, read-out: LC50): 47.1 µM
- IC (TGI) (UACC-62; UACC-62, read-out: TGI): 11 µM
- GI50 (HCT-116; HCT-116, HCT-116): 2070 nM
- CC50 (HCT-116; HCT-116, read-out: LC50): 23.9 µM
- IC (TGI) (HCT-116; HCT-116, read-out: TGI): 6.42 µM
- GI50 (UO-31; UO-31): 2360 nM
- CC50 (UO-31; UO-31, read-out: LC50): 46.3 µM
- IC (TGI) (UO-31; UO-31, read-out: TGI): 12.5 µM
- GI50 (DU-145; DU-145): 3.19 µM
- CC50 (DU-145; DU-145, read-out: LC50): 35.3 µM
- IC (TGI) (DU-145; DU-145, read-out: TGI): 12.5 µM
- GI50 (SK-MEL-28; SK-MEL-28): 3.83 µM
- CC50 (SK-MEL-28; SK-MEL-28, read-out: LC50): 41 µM
- IC (TGI) (SK-MEL-28; SK-MEL-28, read-out: TGI): 15.5 µM
- GI50 (SK-OV-3; SK-OV-3): 21 µM
- CC50 (SK-OV-3; SK-OV-3, read-out: LC50): > 100 µM
- IC (TGI) (SK-OV-3; SK-OV-3, read-out: TGI): 53.7 µM
- GI50 (NCI-H23; NCI-H23): 12.8 µM
- CC50 (NCI-H23; NCI-H23, read-out: LC50): 67.1 µM
- IC (TGI) (NCI-H23; NCI-H23, read-out: TGI): 29.4 µM
- GI50 (T-47D): 2340 nM
- CC50 (T-47D; read-out: LC50): 45.9 µM
- IC (TGI) (T-47D; read-out: TGI): 8.12 µM
- GI50 (A498; A498): 10.1 µM
- CC50 (A498; A498, read-out: LC50): 47 µM
- IC (TGI) (A498; A498, read-out: TGI): 21.8 µM
- GI50 (KM12; Homo sapiens, KM12): 15.5 µM
- CC50 (KM12; Homo sapiens, KM12, read-out: LC50): 63.3 µM
- TGI (KM12; KM12): 3.13E−5
- Percent Growth (KM12; KM12, Log10 Concentration −4.0): −83%
- Percent Growth (KM12; KM12, Log10 Concentration −5.0): 81%
- Percent Growth (KM12; KM12, Log10 Concentration −6.0): 97%
- Percent Growth (KM12; KM12, Log10 Concentration −7.0): 94%
- Percent Growth (KM12; KM12, Log10 Concentration −8.0): 95%
- GI50 (HCC-2998; HCC 2998): 14.4 µM
- CC50 (HCC-2998; HCC 2998, read-out: LC50): 60.1 µM
- IC (TGI) (HCC-2998; HCC 2998, read-out: TGI): 19.4 µM
- GI50 (OVCAR-5; OVCAR-5): 10.1 µM
- CC50 (OVCAR-5; OVCAR-5, read-out: LC50): 50.9 µM
- IC (TGI) (OVCAR-5; OVCAR-5, read-out: TGI): 22.7 µM
- GI50 (NCI-H522; NCI-H522): 1410 nM
- CC50 (NCI-H522; NCI-H522, read-out: LC50): 7.24 µM
- IC (TGI) (NCI-H522; NCI-H522, read-out: TGI): 3.2 µM
- GI50 (SNB-75; SNB-75): 2590 nM
- CC50 (SNB-75; SNB-75, read-out: LC50): 40.6 µM
- IC (TGI) (SNB-75; SNB-75, read-out: TGI): 16.5 µM
- GI50 (786-0; 786-0): 2480 nM
- CC50 (786-0; 786-0, read-out: LC50): 37.3 µM
- IC (TGI) (786-0; 786-0, read-out: TGI): 11.1 µM
- GI50 (SNB-19; SNB-19): 13.5 µM
- CC50 (SNB-19; SNB-19, read-out: LC50): 56.3 µM
- IC (TGI) (SNB-19; SNB-19, read-out: TGI): 27.5 µM
